Data on 2 molecules can be found in PMC9572513, “Novel Unsymmetric 3,5-Bis(benzylidene)-4-piperidones That Display Tumor-Selective Toxicity” (Molecules, 2022).

The test system of series [1] is HGF, HPLF, and HPC non-malignant cells. As to the kind of experiment: Average over HGF, HPLF and HPC non-malignant oral cells. As to conditions: average of HGF. Type of series: cell-based, human. In a few lines:
(§1)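 Compound dilutions incubated 48 h with cells; MTT-based viability.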

Another series relates to HPC non-malignant cells. Briefly: MTT cytotoxicity against human pulp cell (HPC). Type of series: cell-based. To be noted: non-malignant oral cells, 48 h. In a few lines: as §1
The test system of series [2] is HSC-2 squamous cell carcinoma cells. Briefly: MTT cytotoxicity against HSC-2 squamous cell carcinoma. As to conditions: for CC50: 48 h, MTT, read-out: HSC-2 CC50; for HSC-2 SI: average CC50 HGF/HPLF/HPC divided by CC50 HSC-2. It counts as cell-based, human. Summed up:
as §1

Series [3] concerns HSC-3 squamous cell carcinoma cells. Briefly: MTT cytotoxicity against HSC-3 squamous cell carcinoma. To be noted: for CC50: 48 h, MTT, read-out: HSC-3 CC50; for HSC-3 SI: average CC50 HGF/HPLF/HPC divided by CC50 HSC-3. It counts as cell-based, human. In a few lines:
as §1

Series [4] has as its system Ca9-22 squamous cell carcinoma cells. Briefly: MTT cytotoxicity against Ca9-22 squamous cell carcinoma. It counts as cell-based, human. To be noted: for CC50: 48 h, MTT, read-out: Ca9-22 CC50; for Ca9-22 SI: average CC50 HGF/HPLF/HPC divided by CC50 Ca9-22. Summed up:
as §1

For a further series, the system named is HGF non-malignant cells. Briefly: MTT cytotoxicity against human gingival fibroblast (HGF). To be noted: non-malignant oral cells, 48 h. Type of series: cell-based. In a few lines: as §1
In series [5] the test system is Ca9-22, HSC-2, HSC-3, and HSC-4 squamous cell carcinoma cell lines. As to the kind of experiment: Average over Ca9-22, HSC-2, HSC-3 and HSC-4 OSCC cell lines. It counts as cell-based, human. As to conditions: for Average SI: average of SI for four OSCC cell lines; for CC50: average of four OSCC cell lines, read-out: Average CC50. In a few lines:
as §1

The subject of a further series is HPLF non-malignant cells. Briefly: MTT cytotoxicity against human periodontal ligament fibroblast (HPLF). Type of series: cell-based. To be noted: non-malignant oral cells, 48 h. In a few lines: as §1
The subject of series [6] is HSC-4 squamous cell carcinoma cells. As to the kind of experiment: MTT cytotoxicity against HSC-4 squamous cell carcinoma. Type of series: cell-based, human. To be noted: for CC50: 48 h, MTT, read-out: HSC-4 CC50; for HSC-4 SI: average CC50 HGF/HPLF/HPC divided by CC50 HSC-4. Summed up:
as §1

Series [7] in a line: Average over HGF, HPLF and HPC non-malignant oral cells. Type of series: cell-based, human. As to conditions: human, HPLF and HPC non-malignant oral cells (average), average of HGF. In a few lines:
as §1

Series [8] is described as follows: MTT cytotoxicity against human pulp cell (HPC). It counts as cell-based. To be noted: human, human pulp cells (HPC), non-malignant oral cells. In a few lines: as §1
Series [9] in a line: MTT cytotoxicity against human gingival fibroblast (HGF). To be noted: human, human gingival fibroblasts (HGF), non-malignant oral cells. Type of series: cell-based. Summed up:
as §1

For series [10], the system named is CEM cells. As to the kind of experiment: Mitochondrial membrane potential in CEM cells (JC-1, flow cytometry). As to conditions: 7 h. It counts as cell-based, human. How it is done: The effect on the mitochondrial membrane potential in CEM cells was undertaken using a published method. In brief, the cells were incubated with different compounds for 7 h. The cells were then stained with the JC-1 dye, and the samples were examined by flow cytometry. The results are portrayed in Figure 6C.

For series [11], the system named is CRL1790 non-malignant colon cells. As to the kind of experiment: Cytotoxicity against CRL1790 non-malignant colon cells. To be noted: Homo sapiens, 48 h. It counts as cell-based. How it is done:
(§2) The culture medium was supplemented with 10% heat-inactivated fetal bovine serum (FBS) and 1% penicillin–streptomycin antibiotics. The time of the bioassays was 48 h. The determinations were undertaken in triplicate on three different occasions.

Series [12] concerns HCT116 and HT29 colon cancer cells. Briefly: Average over HCT116 and HT29 colon cancer cells. It counts as cell-based, human. How it is done: as §2
The nature of series [13]: MTT cytotoxicity against human periodontal ligament fibroblast (HPLF). It counts as cell-based. To be noted: human, human periodontal ligament fibroblasts (HPLF), non-malignant oral cells. In a few lines: as §1
The subject of series [14] is Ca9-22 cells. As to the kind of experiment: Cell cycle analysis in Ca9-22 cells (propidium iodide). As to conditions: dose-response 0.625-10 μM, 24 h. It counts as cell-based, human.
Method: Apoptosis induction in Ca9-22 cells was evaluated by cell cycle analysis and Western blot analysis as described previously [25, 28] […] Briefly, for the cell cycle analysis, cells were treated for 24 h with the test samples. Cells were then fixed, digested with RNase A, stained with propidium iodide, filtered through Falcon® cell trainers (Corning Inc., Corning, NY, USA), and then subjected to cell sorting.
Series [15] has as its system CEM cells. As to the kind of experiment: ROS production in CEM cells (carboxy-H2DCFDA, flow cytometry). To be noted: CC50 and twice the CC50 concentrations. It counts as cell-based, human. The method, then:
(§3) Apoptosis induction in Ca9-22 cells was evaluated by cell cycle analysis and Western blot analysis as described previously (Figure 5). Briefly, for the cell cycle analysis, cells were treated for 24 h with the test samples. Cells were then fixed, digested with RNase A, stained with propidium iodide, filtered through Falcon® cell trainers (Corning Inc., Corning, NY, USA), and then subjected to cell sorting. For the Western blot, cell lysates (equivalent to 5 µg protein) were applied to SDS-polyacrylamide gel electrophoresis. A literature method was used to determine whether representative compounds led to increases in the production of ROS [29]. In brief, CEM cells were treated with the compounds overnight, then with 6-carboxy-2′,7′-dichlorodihydrofluorescein diacetate (carboxy-H2DCFDA) and the samples were processed using flow cytometry.

A further series has as its system HL-60 cells. Briefly: Differential DNA staining (DNS) cytotoxicity assay, HL-60 cells. To be noted: Homo sapiens. Type of series: cell-based. How it is done:
(§4) The method used for generating the data of human acute lymphocytic leukemia (CEM) and human acute promyelocytic leukemia (HL-60) cells in Table 4 has been described previously. In brief, the cells were cultured in media supplemented with 10% FBS and antibiotics. […] The CC50 values of the compounds listed in Table 4 were obtained by linear interpolation equations [28, 29].

Series [16] has as its system CEM cells. As to the kind of experiment: Differential DNA staining (DNS) cytotoxicity assay, CEM cells. To be noted: Homo sapiens, CCRF-CEM. Type of series: cell-based. How it is done:
as §4

Series [17] deals with Ca9-22 cells. As to the kind of experiment: Western blot for caspase 3 activation in Ca9-22 cells. As to conditions: 3 μM, 24 h. Type of series: cell-based, human. How it is done: as §3
Series [18] concerns CEM cells. As to the kind of experiment: Annexin V-FITC apoptosis assay in CEM cells. As to conditions: CC50 and twice the CC50 concentrations, 24 h. Type of series: cell-based, human. How it is done:
In order to discover if representative compounds induce apoptosis, the annexin V-FITC assay was used. In brief, CEM cells were treated with various compounds for 24 h. The cells were collected and stained with propidium iodide and annexin V-FITC.

Like-named read-outs stand apart in the source and are kept apart here.

For `[NH2][Pt]([NH2])([Cl])[Cl]` [CDDP, cisplatin, reference compound], the CC50 in series [1] is greater than 1000 µM; in the series with HPC non-malignant cells, greater than 1000 µM; in [2], 204 µM; in [3], 46.9 µM; in series [4] it was 212 µM; in the series with HGF non-malignant cells it was greater than 1000 µM. For the same molecule, the figures for the CC50 (in [5]; in the series on HPLF non-malignant cells; in [6]) were 131 µM, greater than 1000 µM and 60.4 µM, respectively. Further, the “HSC-2 SI” value in series [2] was greater than 4.90. Moreover, in series [3], the “HSC-3 SI” value is listed as greater than 21.3. The “Ca9-22 SI” value in [4] is greater than 4.72. Besides, the “Average SI” value in series [5] was greater than 11.1. In addition, the “HSC-4 SI” value in [6] is on record as greater than 16.6.
With `CCN(CC)Cc1cc(C=C2CNCC(=Cc3ccc(OC)c(OC)c3)C2=O)ccc1O.Cl.Cl` [Compound 2b, 3-(3-Diethylaminomethyl-4-hydroxybenzylidene)-5-(3,4-dimethoxybenzylidene)-4-piperidone dihydrochloride], the CC50 at 48 h in series [7] came to 7.03 µM; in [8], 2.3 µM; in series [9], 13.3 µM; in series [13] it was 5.5 µM. In addition, the CC50 in [2] (Homo sapiens, HSC-2) was 1.01 µM; in series [3] (Homo sapiens, HSC-3), 0.76 µM; in series [4] (Homo sapiens, Ca9-22), 0.65 µM; in series [5] (Homo sapiens) it was less than 1 µM; in series [5] it was 0.9 µM; in series [6] (Homo sapiens, HSC-4) it was 1.16 µM. The CC50 stood at 7.75 ± 0.26 µM in the series on HL-60 cells (HL-60, 24 h, read-out: CC50 HL-60 Cells 24 h); 4.82 ± 0.91 µM in the series on HL-60 cells (HL-60, 48 h, read-out: CC50 HL-60 Cells 48 h); 0.63 ± 0.08 µM with CEM cells [16] (24 h, read-out: CC50 CEM Cells 24 h); 0.82 ± 0.03 µM in the series with CEM cells [16] (48 h, read-out: CC50 CEM Cells 48 h). For the same molecule, the “HSC-2 SI” value in series [2] came to 6.96. The “HSC-3 SI” value in series [3] is listed as 9.25. The “Ca9-22 SI” value in [4] is recorded as 10.8. Further, in the series on CEM cells [10], the “depolarization of the mitochondrial membrane potential” value is given as “induced”. In addition, the “Average SI” value in series [5] is on record as 8.27; in series [12] (average of SI for HCT116 and HT29) it was 64.2. The IC50 was 15.2 ± 0.15 µM in [11]; 0.25 µM in series [12] (Homo sapiens, average of HCT116 and HT29, unit printed only for the single cell-line columns). For the same molecule, the “PSE (potency-selectivity expression)” value in series [12] (reciprocal of average IC50 x average SI x 100, colon cells) was 25,680. For the same molecule, the “optimal concentration for the subG1 population” value with Ca9-22 cells [14] worked out at 2.5 µM. The ROS generation entry in the series on CEM cells [15] is given as “generate ROS”. The “HSC-4 SI” value in series [6] was determined as 6.06. For the same molecule, in the series on Ca9-22 cells [17], the “caspase 3 activation (cleavage of PARP and procaspase)” value is listed as “induced”. The apoptotic cells entry with CEM cells [18] is recorded as “approximately 30%”.
